Data published in patent publication US7579006B2, “Method of treating immune pathologies with low dose estrogen” (Oregon Health and Science University, priority 2000, dated 2009).
Read-outs that look alike come from different tables or passages of the source.

What was measured:
[1] = cited from earlier work
Tg female mice = experiment: EAE in BV8S2 transgenic (Tg) female mice; format: in vivo; conditions: for inhibition of EAE: Tg females
[2] = test system: draining lymph node (DLN) cells; experiment: Flow cytometry of activation and adhesion markers on DLN cells of SJL mice with EAE; format: in vivo; conditions: DLN cells at peak of EAE
Method: Immunofluorescent staining for flow cytometry. Draining lymph node (DLN) cells were removed during the peak of clinical symptoms and analyzed for the expression of cell surface proteins by fluorescent staining ex vivo. The following fluorochrome conjugated antibodies obtained from Pharmingen Inc. (San Diego, Calif.) were used for the direct staining of DLN cells: anti-CD4, anti-CD25, anti-CD69, anti-CD95L, anti-CD44, anti-CD62L, anti-CD49d. Two-color immunofluorescent analysis was performed on a FACScan instrument (Becton Dickinson, Mountain View, Calif.) using Cellquest software. For each experiment the cells were stained with isotype control antibodies to establish background staining, and to set the quadrants prior to calculating the percent positive staining cells. […] Alterations in the expression of adhesion or activation markers on T cells are often indicative of functional changes in the cell. Monoclonal antibodies specific for a number of these markers were used to assess whether estrogen therapy altered their expression. Draining lymph node (DLN) cells were recovered from mice during the peak of clinical EAE, incubated with the indicated fluorochrome conjugated monoclonal antibodies, and surface expression measured by fluorescent activated cell analyzer.

[3] = test system: ovariectomized Tg female mice; experiment: EAE in ovariectomized BV8S2 Tg female mice; format: in vivo
B10.PL mice = experiment: EAE induced with MBP Ac1-11 in B10.PL mice; format: in vivo; conditions: for inhibition of EAE: B10.PL females
female SJL mice = experiment: EAE induced with PLP 139-151 in female SJL mice (clinical scores, spinal cord histopathology); format: in vivo; conditions: for Demyelinated foci/section / Inflammatory foci/section: spinal cord at peak of disease
Lymph node CD3+ T cells = experiment: FACS of chemokine receptors on lymph node CD3+ T cells; format: in vivo, mice; conditions: 0.36 mg pellet
Method: Flow cytometry. Lymph node cells from sham and 17β-estradiol treated animals with EAE were washed with PBS/2% FCS/0.2% NaN3 and first incubated on ice for 30 min with Fcγ III/II receptor blocking monoclonal antibody (PharMingen), then stained with PE-conjugated anti-CD3 (PharMingen). After 20 min of incubation with anti-CD3, the cells were fixed and permablized using Cytofix/Cytoperm (PharMingen). Subsequently, cells were incubated with anti-CCR1, anti-CCR2, anti-CCR3, anti-CCR4 and anti-CCR5 goat anti-mouse polyclonal antibodies (Santa Cruz Biotechnology Inc.; USA) for 30 min on ice. After washing, cells were stained with FITC-conjugated anti-goat monoclonal antibodies (Sigma) for an additional 30 min on ice. Cells were analyzed using a FACS-Scan (Becton Dickinson). Propidium iodide and forward/side scatter gating were used to exclude dead cells.

[4] = 0.36 mg pellet, intact Tg females (Example III)
[5] = non-ovariectomized Tg females, BV8S2 with weekly boosting, E2 0.36 mg pellets
[6] = 0.36 mg pellet, OVX Tg females (Example III)

Q: Which “serum concentration from 60-day release pellet” value (“serum concentration” below) ([1]; 0.025 mg pellet) does the source give for `C[C@]12CC[C@@H]3c4ccc(O)cc4CC[C@H]3[C@@H]1CC[C@@H]2O` [17β-estradiol] here?
A: 5 to 10 pg/mL

Q: What about the “serum concentration” value ([1]; 0.1 mg pellet) of the same compound?
A: 25 to 50 pg/mL

Q: What about the “serum concentration” value ([1]; 0.36 mg pellet) of the same compound?
A: 150 to 200 pg/mL

Q: And the “serum concentration” value ([1]; 1.5 mg pellet)?
A: 800-1,000 pg/ml

Q: What about the “serum concentration” value ([1]; 2.5 mg pellet) of the same compound?
A: 1,500-2,000 pg/ml

Q: What about the “serum concentration” value ([1]; 5 mg pellet) of the same compound?
A: 3,000-4,000 pg/ml

Q: And the “serum concentration” value ([1]; 15 mg pellet)?
A: 9,000-10,000 pg/ml

Q: And the CDI (Tg female mice; [4])?
A: 40.4 ± 7.1

Q: And the Incidence (Tg female mice; [4])?
A: 15/18

Q: What about the Onset (Tg female mice; [4]) of the same compound?
A: 17.4 ± 1.8

Q: And the Peak (Tg female mice; [4])?
A: 2.5 ± 0.5

Q: What about the “inhibition of EAE” value (Tg female mice; 0.36 mg pellets) of the same compound?
A: only moderate inhibition

Q: And the “inhibition of EAE” value (Tg female mice; 15 mg pellets)?
A: marked but incomplete inhibition of EAE

Q: And the “Average CDI (10-30)” value (Tg female mice; [5])?
A: 37.3 ± 6.2^A

Q: What about the Incidence (Tg female mice; [5]) of the same compound?
A: 25/33

Q: What about the Mortality (Tg female mice; [5]) of the same compound?
A: 1/33

Q: And the Onset (Tg female mice; [5])?
A: 15.1 ± 2.1A

Q: What about the Peak (Tg female mice; [5]) of the same compound?
A: 3.6 ± 0.7^A

Q: And the “CD4, % of Total” value ([2]; 0.36 mg pellet)?
A: 49%

Q: And the “CD25, % of CD4+ T cells” value ([2]; 0.36 mg pellet)?
A: 5.9%

Q: What about the “CD44, % of CD4+ T cells” value ([2]; 0.36 mg pellet) of the same compound?
A: 43%

Q: And the “CD62L, % of CD4+ T cells” value ([2]; 0.36 mg pellet)?
A: 7.0%

Q: What about the “CD69, % of CD4+ T cells” value ([2]; 0.36 mg pellet) of the same compound?
A: 6.6%

Q: What about the “CD49d, % of CD4+ T cells” value ([2]; 0.36 mg pellet) of the same compound?
A: 45%

Q: And the “FASL, % of CD4+ T cells” value ([2]; 0.36 mg pellet)?
A: 2.7%

Q: What about the “CD4, % of Total” value ([2]; 2.5 mg pellet) of the same compound?
A: 49%

Q: What about the “CD25, % of CD4+ T cells” value ([2]; 2.5 mg pellet) of the same compound?
A: 6.3%

Q: What about the “CD44, % of CD4+ T cells” value ([2]; 2.5 mg pellet) of the same compound?
A: 41%

Q: And the “CD62L, % of CD4+ T cells” value ([2]; 2.5 mg pellet)?
A: 6.7%

Q: And the “CD69, % of CD4+ T cells” value ([2]; 2.5 mg pellet)?
A: 6.5%

Q: And the “CD49d, % of CD4+ T cells” value ([2]; 2.5 mg pellet)?
A: 43%

Q: What about the “FASL, % of CD4+ T cells” value ([2]; 2.5 mg pellet) of the same compound?
A: 4.2%

Q: What about the CDI [3, 6] of the same compound?
A: 40.0 ± 8.5

Q: What about the Incidence [3, 6] of the same compound?
A: 8/11

Q: And the Onset [3, 6]?
A: 16.5 ± 2.3

Q: What about the Peak [3, 6] of the same compound?
A: 2.6 ± 0.6

Q: What about the “Average CDI (10-30)” value ([3]; Ovx Tg females) of the same compound?
A: 40.0 ± 22.1^B

Q: And the Incidence ([3]; Ovx Tg females)?
A: 11/15

Q: What about the Mortality ([3]; Ovx Tg females) of the same compound?
A: 4/15

Q: What about the Onset ([3]; Ovx Tg females) of the same compound?
A: 13.6 ± 1.5

Q: What about the Peak ([3]; Ovx Tg females) of the same compound?
A: 3.5 ± 0.8

Q: And the CDT (B10.PL mice; 0.18 mg/pellet (diestrus))?
A: 5.8 ± 2.9

Q: What about the Incidence (B10.PL mice; 0.18 mg/pellet (diestrus)) of the same compound?
A: 3/6

Q: What about the “Incidence (%)” value (B10.PL mice; 0.18 mg/pellet (diestrus)) of the same compound?
A: 50%

Q: What about the Onset (B10.PL mice; 0.18 mg/pellet (diestrus)) of the same compound?
A: 25.7 ± 1.2 days

Q: And the “Peak (disease score)” value (B10.PL mice; 0.18 mg/pellet (diestrus))?
A: 1.7 ± 0.92

Q: And the CDT (B10.PL mice; 0.36 mg/pellet (estrus))?
A: 13.5 ± 6.2

Q: And the Incidence (B10.PL mice; 0.36 mg/pellet (estrus))?
A: 15/26

Q: And the “Incidence (%)” value (B10.PL mice; 0.36 mg/pellet (estrus))?
A: 58%

Q: And the Onset (B10.PL mice; 0.36 mg/pellet (estrus))?
A: 26.5 ± 1.3 days

Q: What about the “Peak (disease score)” value (B10.PL mice; 0.36 mg/pellet (estrus)) of the same compound?
A: 2.61 ± 0.60

Q: What about the CDT (B10.PL mice; 2.50 mg/pellet (pregnancy)) of the same compound?
A: 0 ± 0

Q: What about the Incidence (B10.PL mice; 2.50 mg/pellet (pregnancy)) of the same compound?
A: 0/15

Q: What about the “Incidence (%)” value (B10.PL mice; 2.50 mg/pellet (pregnancy)) of the same compound?
A: 0%

Q: What about the Onset (B10.PL mice; 2.50 mg/pellet (pregnancy)) of the same compound?
A: 0 ± 0 days

Q: And the “Peak (disease score)” value (B10.PL mice; 2.50 mg/pellet (pregnancy))?
A: 0 ± 0

Q: What about the CDT (B10.PL mice; 15.0 mg/pellet (high)) of the same compound?
A: 1.4 ± 3.8

Q: What about the Incidence (B10.PL mice; 15.0 mg/pellet (high)) of the same compound?
A: 2/8

Q: And the “Incidence (%)” value (B10.PL mice; 15.0 mg/pellet (high))?
A: 25%

Q: And the Onset (B10.PL mice; 15.0 mg/pellet (high))?
A: 29 ± 1.4 days

Q: And the “Peak (disease score)” value (B10.PL mice; 15.0 mg/pellet (high))?
A: 2.0 ± 1.0

Q: What about the “inhibition of EAE” value (B10.PL mice; 2.5 mg pellets) of the same compound?
A: essentially complete inhibition of EAE

Q: What about the “inhibition of EAE” value (B10.PL mice; 15 mg pellets) of the same compound?
A: essentially complete inhibition of EAE

Q: And the “inhibition of EAE” value (B10.PL mice; estrus (0.36 mg pellets) to diestrus levels (0.10 mg pellets))?
A: substantial inhibition

Q: And the “CDI (cumulative disease index)” value (female SJL mice; 0.025 mg/pellet (diestrus))?
A: 19.2 ± 10.0

Q: What about the Incidence (female SJL mice; 0.025 mg/pellet (diestrus)) of the same compound?
A: 15/18

Q: And the “Incidence (%)” value (female SJL mice; 0.025 mg/pellet (diestrus))?
A: (83%)

Q: And the Onset (female SJL mice; 0.025 mg/pellet (diestrus))?
A: 15.8 ± 3.5 days

Q: And the “Peak (disease score)” value (female SJL mice; 0.025 mg/pellet (diestrus))?
A: 3.6 ± 1.3

Q: What about the Relapse (female SJL mice; 0.025 mg/pellet (diestrus)) of the same compound?
A: 5/9

Q: What about the “Relapse (%)” value (female SJL mice; 0.025 mg/pellet (diestrus)) of the same compound?
A: (56%)

Q: And the “CDI (cumulative disease index)” value (female SJL mice; 0.1 mg/pellet (diestrus))?
A: 8.9 ± 3.4

Q: And the Incidence (female SJL mice; 0.1 mg/pellet (diestrus))?
A: 12/19

Q: And the “Incidence (%)” value (female SJL mice; 0.1 mg/pellet (diestrus))?
A: (63%)

Q: And the Onset (female SJL mice; 0.1 mg/pellet (diestrus))?
A: 14.5 ± 2.0 days

Q: What about the “Peak (disease score)” value (female SJL mice; 0.1 mg/pellet (diestrus)) of the same compound?
A: 2.0 ± 0.9

Q: What about the Relapse (female SJL mice; 0.1 mg/pellet (diestrus)) of the same compound?
A: 2/9

Q: And the “Relapse (%)” value (female SJL mice; 0.1 mg/pellet (diestrus))?
A: (22%)

Q: And the Demyelinated foci/section (female SJL mice; 0.36 mg pellet)?
A: 0.5 ± 0.3 foci/section

Q: And the Inflammatory foci/section (female SJL mice; 0.36 mg pellet)?
A: 1.3 ± 0.8 foci/section

Q: What about the “CDI (cumulative disease index)” value (female SJL mice; 0.36 mg/pellet (estrus)) of the same compound?
A: 9.8 ± 1.9

Q: What about the Incidence (female SJL mice; 0.36 mg/pellet (estrus)) of the same compound?
A: 15/19

Q: And the “Incidence (%)” value (female SJL mice; 0.36 mg/pellet (estrus))?
A: (79%)

Q: What about the Onset (female SJL mice; 0.36 mg/pellet (estrus)) of the same compound?
A: 15.1 ± 1.3 days

Q: What about the “Peak (disease score)” value (female SJL mice; 0.36 mg/pellet (estrus)) of the same compound?
A: 2.5 ± 0.6

Q: And the Relapse (female SJL mice; 0.36 mg/pellet (estrus))?
A: 2/9

Q: And the “Relapse (%)” value (female SJL mice; 0.36 mg/pellet (estrus))?
A: (22%)

Q: And the Demyelinated foci/section (female SJL mice; 2.5 mg pellet)?
A: 0.5 ± 0.4 foci/section

Q: What about the Inflammatory foci/section (female SJL mice; 2.5 mg pellet) of the same compound?
A: 0.6 ± 0.8 foci/section

Q: What about the “CDI (cumulative disease index)” value (female SJL mice; 2.5 mg/pellet (pregnancy)) of the same compound?
A: 7.5 ± 7.9

Q: And the Incidence (female SJL mice; 2.5 mg/pellet (pregnancy))?
A: 4/10

Q: What about the “Incidence (%)” value (female SJL mice; 2.5 mg/pellet (pregnancy)) of the same compound?
A: (40%)

Q: What about the Onset (female SJL mice; 2.5 mg/pellet (pregnancy)) of the same compound?
A: 13.8 ± 0.5 days

Q: What about the “Peak (disease score)” value (female SJL mice; 2.5 mg/pellet (pregnancy)) of the same compound?
A: 2.0 ± 2.1

Q: What about the Relapse (female SJL mice; 2.5 mg/pellet (pregnancy)) of the same compound?
A: 0/4

Q: What about the “Relapse (%)” value (female SJL mice; 2.5 mg/pellet (pregnancy)) of the same compound?
A: (0%)

Q: What about the “comparison of E2 and E3 in incidence or severity of EAE” value (female SJL mice; Fisher exact test, same animal model) of the same compound?
A: equally protective

Q: And the “CCR2 staining of lymph node CD3+ T cells” value (Lymph node CD3+ T cells)?
A: No difference

Q: And the “percentage of CCR5 positive lymph node CD3+ T cells” value (Lymph node CD3+ T cells; sham 35+4, p=0.03, in %)?
A: 27+2

Q: And the “percentage of CCR1 positive lymph node CD3+ T cells” value (Lymph node CD3+ T cells; sham 91+6%, p=0.02)?
A: 77+2%
